# Biological target: T1, synthetic Aβ 1-40 (Homo sapiens, UniProt P05067)
# T1 construct: using synthetic Aβ 1-40 in 2.7 nM of [^3H]PIB
# Assay: Competition binding assay
# Settings: [3H]PIB as radioligand (2.7 nM), synthetic Aβ 1-40, phosphate buffer pH 7.5, 30 min room temperature; read-out: IC50 in the competion binding assay
# Procedure: Competition binding was performed in 384-well FB filter plates using synthetic Aβ 1-40 in 2.7 nM of [^3H]PIB (or another ^3H-labeled radioligand when so mentioned) in phosphate buffer at pH 7.5, by adding various concentrations of non-radioactive compounds originally dissolved in DMSO. The binding mixture was incubated for 30 min at room temperature, followed by vacuum filtration, and subsequently by washing twice with 1% Triton-X100. Scintillation fluid was thereafter added to the collected Aβ 1-40 on the filter plate, and the activity of the bound remaining radioligand ([^3H]PIB or another ^3H-labeled radioligand) was measured using 1450 Microbeta from PerkinElmer. Specific binding was determined according to the competion binding assay described herein. The determined IC50's in the competion binding assays (using [^3H]PIB as radioligand) of […] of the present invention are shown in Table 1.
# T1 sequence (P05067 672-711 limits assumed): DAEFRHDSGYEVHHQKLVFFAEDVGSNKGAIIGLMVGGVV
row,SMILES,IC50
1,"CNc1ccc(-c2cn3cc(OC)ccc3n2)cn1 [Example 1, 5-(6-Methoxyimidazo[1,2-a]pyridin-2-yl)-N-methylpyridin-2-amine]",2470 nM
2,"COc1ccc2nc(-c3ccc(OC)nc3)cn2c1 [Example 5, 6-Methoxy-2-(6-methoxypyridin-3-yl)imidazo[1,2-a]pyridine]",2840 nM
3,"COc1ccc2nc(-c3ccc(N4CCNCC4)nc3)cn2c1 [Example 8, 6-Methoxy-2-(6-piperazin-1-ylpyridin-3-yl)imidazo[1,2-a]pyridine]",8380 nM
4,"COc1ccc2nc(-c3ccc(N4CCN(C(=O)OC(C)(C)C)CC4)nc3)cn2c1 [Example 9, tert-Butyl 4-[5-(6-methoxyimidazo[1,2-c]pyridin-2-yl)pyridin-2-yl]piperazine-1-carboxylate]",1360 nM
5,"COc1ccc2nc(-c3cnc(N4CCOCC4)nc3)cn2c1 [Example 10, 6-Methoxy-2-(2-morpholin-4-ylpyrimidin-5-yl)imidazo[1,2-a]pyridine]",1590 nM
6,"COc1ccc2nc(-c3ccc(C(N)=O)nc3)cn2c1 [Example 16, 5-(6-Methoxyimidazo[1,2-a]pyridin-2-yl)pyridine-2-carboxamide]",2310 nM
7,"NC(=O)c1ccc(-c2cn3cc(O)ccc3n2)cn1 [Example 17, 5-(6-Hydroxyimidazo[1,2-a]pyridin-2-yl)pyridine-2-carboxamide]",2790 nM
8,"O=C(OCCF)c1ccc2nc(-c3ccc(F)nc3)cn2c1 [Example 18, 2-Fluoroethyl 2-(6-fluoropyridin-3-yl)imidazo[2,1-f]pyridine-6-carboxylate]",17900 nM
9,"CN(C)c1ccc(-c2cn3cc(C(=O)OCCF)ccc3n2)cn1 [Example 20, 2-Fluoroethyl 2-(6-dimethylaminopyridin-3-yl)imidazo[2,1-f]pyridine-6-carboxylate]",16600 nM
10,"CNc1ccc(-c2cn3cc(C(=O)OC)ccc3n2)cn1 [Example 21, Methyl 2-(6-methylaminopyridin-3-yl)imidazo[2,1-f]pyridine-6-carboxylate]",960 nM

# Now those with a lower IC50, led by results:
row,IC50,SMILES
1,838 nM,"COc1ccc2nc(-c3cnc(OC)c(F)c3)cn2c1 [Example 6, 2-(5-Fluoro-6-methoxypyridin-3-yl)-6-methoxyimidazo[1,2-a]pyridine]"
2,739 nM,"COC(=O)c1ccc2nc(-c3ccc(N(C)C)nc3)cn2c1 [Example 19, Methyl 2-(6-dimethylaminopyridin-3-yl)imidazo[2,1-f]pyridine-6-carboxylate]"
3,709 nM,"COc1ccc2nc(-c3cnc(OC)c(Cl)c3)cn2c1 [Example 7, 2-(5-Chloro-6-methoxypyridin-3-yl)-6-methoxyimidazo[1,2-a]pyridine]"
4,469 nM,"CNc1ccc(-c2cn3cc(C(=O)OCCF)ccc3n2)cn1 [Example 22, 2-Fluoroethyl 2-(6-methylaminopyridin-3-yl)imidazo[2,1-t]pyridine-6-carboxylate]"
5,386 nM,"COc1ccc2nc(-c3ccc(N(C)C)nc3)cn2c1 [Example 3, 5-(6-Methoxyimidazo[1,2-a]pyridin-2-yl)-N,N-dimethylpyridin-2-amine]"
6,375 nM,"CNc1ccc(-c2cn3cc(O)ccc3n2)cn1 [Example 2, 2-[6-(Methylamino)pyridin-3-yl]imidazo[1,2-a]pyridin-6-ol]"
7,184 nM,"COc1ccc2nc(-c3ccc4[nH]ccc4c3)cn2c1 [Example 11, 2-(1H-Indol-5-yl)-6-methoxyimidazo[1,2-a]pyridine]"
8,126 nM,"CN(C)c1ccc(-c2cn3cc(O)ccc3n2)cn1 [Example 4, 2-[6-(Dimethylamino)pyridin-3-yl]imidazo[1,2-a]pyridin-6-ol]"

# — US20100092385A1, “Novel Heteroaryl Substituted Imidazo [1,2-A] Pyridine Derivatives” (ASTRAZENECA AB, priority 2007, published 2010)
